Measured values as given in patent publication US20170073679A1, “Compositions and Methods for Selective Delivery of Oligonucleotide Molecules to Cell Types” (nLife Therapeutics, S.L., priority 2012, published 2017).
d = 2'-deoxy (DNA); m = 2'-O-methyl

How the values were obtained:
[1] = system: obese animals (high fat diet); test: Physiological effect of tabimorelin conjugated antisense oligonucleotides in a high-fat diet model of obesity; assay type: in vivo; conditions: 10 doses in 12 days of 30 μg intranasally
Description: Animals were fed a high fat diet (HFD) (TD.06414, 60% fat, Harlan) or a standard diet (Control diet: 2014, Harlan) for 12 weeks. Those obese animals that weighed more than the mean body weight of the lean animals plus 2 times the lean standard deviation were selected:
Obese BW>lean BW mean+2×lean SD
The day of administration animals were fasted for 8 hours. Under isofluorane anesthesia, 10 doses in 12 days of 30 μg of the following molecules were intranasally administered (5 μl per nostril): • Vehicle (VH) (1×PBS) • TAB-NS-ASO4 (NS)(Non-sense sequence directed with tabimorelin) • TAB-SOCS3-ASO4 (SOCS3)(antisense sequence against socs3 mRNA directed with tabimorelin) • TAB-PTP1B-ASO4 (PTP1B)(antisense sequence against ptp1b mRNA directed with tabimorelin
Body weight and food intake were daily monitored. 48 hours after the last administration animals were sacrificed and tissues collected for further analysis.

[2] = target: human recombinant GHS-R1a (Homo sapiens, UniProt Q92847); conditions: cited from earlier work
[3] = system: rat pituitary cells; conditions: read-out: EC50, stimulates GH release; cited from earlier work

Sequence of human recombinant GHS-R1a (Q92847 whole entry): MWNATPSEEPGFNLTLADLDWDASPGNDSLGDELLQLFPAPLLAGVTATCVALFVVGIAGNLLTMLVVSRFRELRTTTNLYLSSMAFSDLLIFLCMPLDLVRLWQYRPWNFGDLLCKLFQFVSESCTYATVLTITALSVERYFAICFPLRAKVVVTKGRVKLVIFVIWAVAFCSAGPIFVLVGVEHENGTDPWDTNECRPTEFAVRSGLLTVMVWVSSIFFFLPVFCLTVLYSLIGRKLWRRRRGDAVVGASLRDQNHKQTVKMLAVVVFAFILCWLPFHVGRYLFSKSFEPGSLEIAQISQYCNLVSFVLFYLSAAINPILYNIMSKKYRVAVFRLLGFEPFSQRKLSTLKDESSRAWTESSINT

| Compound | Daily BW gain (mean of changes in daily body weight) [1] | Cumulative body weight (BW) gain ([1]; vs VH and NS) | Cumulative food intake (FI) ([1]; vs VH and NS) | Daily FI (mean of daily food ingestion) ([1]; vs VH and NS) | Ki [2] [nM] | EC50 [3] [nM] |
| --- | --- | --- | --- | --- | --- | --- |
| TAB-SOCS3-ASO4: antisense sequence against socs3 mRNA directed with tabimorelin; 20-mer with 10 DNA core and 2′-o-methyl flanks (antisense GUGGCGCTGGTCCGAGCTGT; sugars from the 5' end m5 d10 m5, backbone and methylation of C not given here; tabimorelin conjugate attached) | not being significantly different between groups, a decrease was observed | gained significantly less weight than control animals | significantly decreased | decreased | – | – |
| CNC(=O)[C@@H](Cc1ccccc1)N(C)C(=O)[C@@H](Cc1ccc2ccccc2c1)N(C)C(=O)/C=C/CC(C)(C)N [Tabimorelin] | – | – | – | – | 50 | 2.7 |
